Experimental data as given in US6921821B2, “Antagonists of melanin concentrating hormone receptor” (Abbott Laboratories, priority 2002, dated 2005).
Counter-ions that a name gives are not always drawn.

Target: T1, murine MCHR (Mus musculus, UniProt Q8JZL2)
T1 construct: expressed in transfected cells; host or cells: HEK293
Experiment: Assay for release of intracellular calcium (FLIPR, Fluo-4), inhibition of MCH-induced Ca++ flux
Type: cell-based
Details: test compound at a dose of 10 μM, HEK293 cells expressing the murine MCHR, read-out: inhibition of MCH (MCH induced Ca++ flux / fluorescence)
Outline: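 HEK293 cells expressing murine MCHR were loaded with Fluo-4AM (2.5 μM) and given compound (40 μM stock in 4% DMSO), with 3 min monitoring for agonism. They were then challenged with mouse MCH (12 nM as added) and FLIPR fluorescence followed 3 min more. % inhibition of MCH-induced Ca++ flux was calculated against baseline and no-compound signals.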

T1 sequence (Q8JZL2 whole entry): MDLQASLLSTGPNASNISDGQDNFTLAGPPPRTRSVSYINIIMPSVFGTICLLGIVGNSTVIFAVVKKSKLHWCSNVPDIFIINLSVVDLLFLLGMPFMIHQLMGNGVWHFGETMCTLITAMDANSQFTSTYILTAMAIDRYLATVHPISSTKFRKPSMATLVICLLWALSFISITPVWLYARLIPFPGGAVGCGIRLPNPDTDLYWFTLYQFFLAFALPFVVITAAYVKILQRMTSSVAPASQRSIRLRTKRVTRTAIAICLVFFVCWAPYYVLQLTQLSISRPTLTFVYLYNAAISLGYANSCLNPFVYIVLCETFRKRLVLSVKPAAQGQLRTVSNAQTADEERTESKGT

| Structure (SMILES) | inhibition at 10 µM [%] |
| --- | --- |
| CCc1ccc2oc(=O)cc(NC3CCN(Cc4ccc5c(c4)OCO5)CC3)c2c1 [II-63, 4-(1-Benzo{1,3}dioxol-5-ylmethyl-piperidin-4-ylamino)-6-ethyl-chromen-2-one] | ≥ 50 |
| COc1ccc2oc(=O)cc(NC3CCN(Cc4ccc5c(c4)OCCO5)CC3)c2c1 [II-64, 4-[1-(2,3-Dihydro-benzo[1,4]dioxin-6-ylmethyl)-piperidin-4-ylamino]-6-methoxy-chromen-2-one trifluoroacetate] | ≥ 50 |
| COc1ccc2oc(=O)cc(NC3CCN(Cc4ccc(Br)cc4)CC3)c2c1 [II-65, 4-[1-(4-Bromo-benzyl)-piperidin-4-ylamino]-6-methoxy-chromen-2-one trifluoroacetate] | ≥ 50 |
| COc1ccc2oc(=O)cc(NC3CCN(Cc4cccc5ccccc45)CC3)c2c1 [II-66, 6-Methoxy-4-(1-naphthalen-1-ylmethyl-piperidin-4-ylamino)-chromen-2-one trifluoroacetate] | ≥ 50 |
| O=C(NCCN1CCCCC1)c1ccc(CN2CCC(Nc3cc(=O)oc4ccc(Cl)cc34)CC2)cc1 [II-67, 4-[4-(6-Chloro-2-oxo-2H-chromen-4-ylamino)-piperidin-1-ylmethyl]-N-(2-piperidin-1-yl-ethyl)-benzamide; Double TFA Salt] | ≥ 50 |
| COc1ccc2oc(=O)cc(NC3CCN(Cc4ccc5c(c4)OC(F)(F)O5)CC3)c2c1 [II-68, 4-[1-(2,2-Difluoro-benzo[1,3]dioxol-5-ylmethyl)-piperidin-4-ylamino]-6-methoxy-chromen-2-one trifluoroacetate] | ≥ 50 |
| COc1ccc2oc(=O)cc(NC3CCN(Cc4ccc(C(=O)NCCN5CCCCC5)cc4)CC3)c2c1 [II-69, 4-[4-(6-Methoxy-2-oxo-2H-chromen-4-ylamino)-piperidin-1-ylmethyl]-N-(2-piperidin-1-yl-ethyl)-benzamide; Double TFA Salt] | ≥ 50 |
| COc1ccc2oc(=O)cc(NC3CCN(Cc4ccc(OC)c(F)c4)CC3)c2c1 [II-70, 4-[1-(3-Fluoro-4-methoxy-benzyl)-piperidin-4-ylamino]-6-methoxy-chromen-2-one trifluoroacetate] | ≥ 50 |
| Cc1ccc(CN2CCC(Nc3cc(=O)oc4ccc(Cl)cc34)CC2)cc1C [II-71, 6-Chloro-4-[1-(3,4-dimethyl-benzyl)-piperidin-4-ylamino]-chromen-2-one] | ≥ 50 |
| O=c1cc(NC2CCN(Cc3ccc4cnccc4c3)CC2)c2cc(Cl)ccc2o1 [II-73, 6-Chloro-4-(1-isoquinolin-6-ylmethyl-piperidin-4-ylamino)-chromen-2-one] | ≥ 50 |
| CC(c1ccc(Cl)cc1)N1CCC(Nc2cc(=O)oc3ccc(Cl)cc23)CC1 (stereo not shown) [II-74, 6-Chloro-4-{1-[1-(4-chloro-phenyl)-ethyl]-piperidin-4-ylamino}-chromen-2-one] | ≥ 50 |
| N#Cc1ccc2oc(=O)cc(NC3CCN(Cc4ccc5c(c4)OCO5)CC3)c2c1 [II-75, 4-(1-Benzo[1,3]dioxol-5-ylmethyl-piperidin-4-ylamino)-2-oxo-2H-chromene-6-carbonitrile] | ≥ 50 |
| COc1cccc(CN2CCC(Nc3cc(=O)oc4ccc(OC)cc34)CC2)c1 [II-76, 6-Methoxy-4-[1-(3-methoxy-benzyl)-piperidin-4-ylamino]-chromen-2-one trifluoroacetate] | ≥ 50 |
| O=c1cc(NC2CCN(Cc3ccc4c(c3)CCO4)CC2)c2cc(Cl)ccc2o1 [II-78, 6-Chloro-4-[1-(2,3-dihydro-benzofuran-5-ylmethyl)-piperidin-4-ylamino]-chromen-2-one] | ≥ 50 |
| COc1ccc2oc(=O)cc(NC3CCN(Cc4cccc(F)c4)CC3)c2c1 [II-79, 4-[1-(3-Fluoro-benzyl)-piperidin-4-ylamino]-6-methoxy-chromen-2-one trifluoroacetate] | ≥ 50 |
| CCOc1ccc(CN2CCC(Nc3cc(=O)oc4ccc(OC)cc34)CC2)cc1 [II-80, 4-[1-(4-Ethoxy-benzyl)-piperidin-4-ylamino]-6-methoxy-chromen-2-one trifluoroacetate] | ≥ 50 |
| O=C1CCCN1c1cc(Cl)cc2c(NC3CCN(Cc4ccc5c(c4)OCO5)CC3)cc(=O)oc12 [II-81] | ≥ 50 |
| O=c1cc(NC2CCN(Cc3ccc4c(c3)OCO4)CC2)c2cc(C(F)(F)F)ccc2o1 [II-82, 4-(1-Benzo[1,3]dioxol-5-ylmethyl-piperidin-4-ylamino)-6-trifluoromethyl-chromen-2-one] | ≥ 50 |
| COc1ccc2oc(=O)cc(NC3CCN(Cc4ccc(C(=O)NCCc5ccccn5)cc4)CC3)c2c1 [II-83, 4-[4-(6-Methoxy-2-oxo-2H-chromen-4-ylamino)-piperidin-1-ylmethyl]-N-(2-pyridin-2-yl-ethyl)-benzamide; Double TFA Salt] | ≥ 50 |
| COc1ccc2oc(=O)cc(NC3CCN(Cc4cc5ccccc5n4C)CC3)c2c1 [II-84, 6-Methoxy-4-[1-(1-methyl-1H-indol-2-ylmethyl)-piperidin-4-ylamino]-chromen-2-one, trifluoroacetate] | ≥ 50 |

Now from value to molecule:

| inhibition at 10 µM [%] | Structure (SMILES) |
| --- | --- |
| ≥ 50 | O=c1cc(NC2CCN(Cc3ccc4ccccc4c3)CC2)c2cc(F)cc(F)c2o1 [II-85, 6,8-Difluoro-4-(1-naphthalen-2-ylmethyl-piperidin-4-ylamino)-chromen-2-one] |
| ≥ 50 | COc1ccc2oc(=O)cc(NC3CCN(Cc4ccc(C(=O)NCCN5CCCC5)cc4)CC3)c2c1 [II-86, 4-[4-(6-Methoxy-2-oxo-2H-chromen-4-ylamino)-piperidin-1-ylmethyl]-N-(2-pyrrolidin-1-yl-ethyl)-benzamide; Double TFA Salt] |
| ≥ 50 | C=Cc1ccc2oc(=O)cc(NC3CCN(Cc4ccc5c(c4)CCO5)CC3)c2c1 [II-87, 4-[1-(2,3-Dihydro-benzofuran-5-ylmethyl)-piperidin-4-ylamino]-6-vinyl-chromen-2-one] |
| ≥ 50 | COc1ccc2oc(=O)cc(NC3CCN(Cc4ccc(O)c(F)c4)CC3)c2c1 [II-88, 4-[1-(3-Fluoro-4-hydroxy-benzyl)-piperidin-4-ylamino]-6-methoxy-chromen-2-one hydrochloride] |
| ≥ 50 | Cc1ccc2oc(=O)c(F)c(NC3CCN(Cc4ccc5c(c4)OCO5)CC3)c2c1 [II-89, 4-(1-Benzo{1,3}dioxol-5-ylmethyl-piperidin-4-ylamino)-3-fluoro-6-methylchromene-2-one] |
| ≥ 50 | COc1ccc2oc(=O)c(Cl)c(NC3CCN(Cc4ccc5c(c4)OCO5)CC3)c2c1 [II-90, 4-(1-Benzo[1,3]dioxol-5-ylmethyl-piperidin-4-ylamino)-3-chloro-6-methoxy-chromen-2-one] |
| ≥ 50 | COc1ccc2oc(=O)cc(NC3CCN(Cc4ccc(OCCCN(C)C)cc4)CC3)c2c1 [II-91] |
| ≥ 50 | COc1ccc2oc(=O)cc(NC3CCN(Cc4cccc(C)c4)CC3)c2c1 [II-92, 6-Methoxy-4-[1-(3-methyl-benzyl)-piperidin-4-ylamino]-chromen-2-one trifluoroacetate] |
| ≥ 50 | O=c1cc(NC2CCN(Cc3cc(Cl)c4occc4c3)CC2)c2cc(Cl)ccc2o1 [II-93, 6-Chloro-4-[1-(7-chloro-benzofuran-5-ylmethyl)-piperidin-4-ylamino]-chromen-2-one] |
| ≥ 50 | COc1ccc2oc(=O)cc(NC3CCN(Cc4ccc(C(=O)N5CCN(Cc6ccccc6)CC5)cc4)CC3)c2c1 [II-94, 4-{1-[4-(4-Benzyl-piperazine-1-carbonyl)-benzyl]-piperidin-4-ylamino}-6-methoxy-chromen-2-one; Double TFA Salt] |
| ≥ 50 | O=c1cc(NC2CCN(Cc3ccc4ocnc4c3)CC2)c2cc(Cl)ccc2o1 [II-95, 4-{1-Benzooxazol-5-ylmethyl-piperidin-4-ylamino)-6-chloro-chromen-2-one] |
| ≥ 50 | O=c1cc(NC2CCN(Cc3ccc4c(c3)OCO4)CC2)c2cc(OC(F)(F)F)ccc2o1 [II-96, 4-(1-Benzo[1,3]dioxol-5ylmethyl-piperidin-4-ylamino)-6-trifluoromethoxy-chromen-2-one] |
| ≥ 50 | CCOc1cccc(CN2CCC(Nc3cc(=O)oc4ccc(OC)cc34)CC2)c1 [II-97, 4-[1-(3-Ethoxy-benzyl)-piperidin-4-ylamino]-6-methoxy-chromen-2-one trifluoroacetate] |
| ≥ 50 | Cc1cc(C)c2oc(=O)cc(NC3CCN(Cc4ccc5c(c4)OCO5)CC3)c2c1 [II-98, 4-(1-Benzo[1,3]dioxol-5-ylmethyl-piperidin-4-ylamino)-6,8-dimethyl-chromen-2-one] |
| ≥ 50 | NC(=O)c1cccc(CN2CCC(Nc3cc(=O)oc4ccc(Cl)cc34)CC2)c1 [II-99, 3-[4-(6-Chloro-2-oxo-2H-chromen-4-ylamino)-piperidin-1-ylmethyl]-benzamide] |
| ≥ 50 | C=Cc1ccc2oc(=O)cc(NC3CCN(Cc4ccc5ocnc5c4)CC3)c2c1 [II-100, 4-(1-Benzooxazol-5-ylmethyl-piperidin-4-ylamino)-6-vinyl-chromen-2-one] |
| ≥ 50 | COc1ccc2oc(=O)cc(NC3CCN(Cc4cccc5sccc45)CC3)c2c1 [II-101, 4-{[1-(1-benzothien-4-ylmethyl)piperidin-4-yl]amino}-6-methoxy-2H-chromen-2-one] |
| ≥ 50 | COc1ccc2oc(=O)cc(NC3CCN(Cc4ccccc4)CC3)c2c1 [II-102, 4-(1-Benzyl-piperidin-4-ylamino)-6-methoxy-chromen-2-one trifluoroacetate] |
| ≥ 50 | CCc1ccc2oc(=O)cc(NC3CCN(Cc4ccc(C)c(C)c4)CC3)c2c1 [II-103, 4-{1-(3,4-Dimethyl-benzyl)-piperidin-4-ylamino}-6-ethyl-chromen-2-one] |
| ≥ 50 | COc1ccc2oc(=O)cc(NC3CCN(Cc4ccc(C)c(F)c4)CC3)c2c1 [II-105, 4-[1-(3-Fluoro-4-methyl-benzyl)-piperidin-4-ylamino]-6-methoxy-chromen-2-one trifluoroacetate] |
